Reference: PubChem BioAssay (NCI)
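Protocol summary: plate cells (96-well), add compound at 5 concentrations, incubate 48 h, interpolate endpoints linearly. The concentration for 50% growth inhibition is given as GI50. Definition used: TGI = concentration required for complete inhibition of growth.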

Key:
Test in all cases: DTP human tumour cell line panel, 48 h
K-562 leukemia = system: K-562 leukemia
ACHN renal = system: ACHN renal
MOLT-4 leukemia = system: MOLT-4 leukemia
SF-295 CNS = system: SF-295 CNS
HS 578T breast = system: HS 578T breast
SR leukemia = system: SR leukemia
RPMI-8226 leukemia = system: RPMI-8226 leukemia
DU-145 prostate = system: DU-145 prostate
RXF 393 renal = system: RXF 393 renal
NCI-H460 lung = system: NCI-H460 lung
CCRF-CEM leukemia = system: CCRF-CEM leukemia
MDA-MB-231 breast = system: MDA-MB-231 breast
NCI/ADR-RES ovarian = system: NCI/ADR-RES ovarian
MDA-MB-435 = system: MDA-MB-435
HL-60(TB) leukemia = system: HL-60(TB) leukemia
MCF7 breast = system: MCF7 breast
PC-3 prostate = system: PC-3 prostate
SNB-75 CNS = system: SNB-75 CNS
SK-MEL-2 melanoma = system: SK-MEL-2 melanoma
HOP-62 NSCLC = system: HOP-62 NSCLC
KM12 colon = system: KM12 colon
EKVX NSCLC = system: EKVX NSCLC
SK-MEL-5 melanoma = system: SK-MEL-5 melanoma
T-47D breast = system: T-47D breast
IGROV1 ovarian = system: IGROV1 ovarian
UO-31 renal = system: UO-31 renal
HOP-92 NSCLC = system: HOP-92 NSCLC
SK-OV-3 ovarian = system: SK-OV-3 ovarian
NCI-H226 lung = system: NCI-H226 lung
OVCAR-3 ovarian = system: OVCAR-3 ovarian
A498 renal = system: A498 renal
OVCAR-8 ovarian = system: OVCAR-8 ovarian
UACC-257 melanoma = system: UACC-257 melanoma
TK-10 renal = system: TK-10 renal
SN12C renal = system: SN12C renal
HCT-15 colon = system: HCT-15 colon
CAKI-1 renal = system: CAKI-1 renal
LOX IMVI melanoma = system: LOX IMVI melanoma
HCC-2998 colon = system: HCC-2998 colon
SNB-19 CNS = system: SNB-19 CNS
786-0 renal = system: 786-0 renal
SK-MEL-28 melanoma = system: SK-MEL-28 melanoma
SF-268 CNS = system: SF-268 CNS
SF-539 CNS = system: SF-539 CNS
OVCAR-5 ovarian = system: OVCAR-5 ovarian
SW-620 colon = system: SW-620 colon
BT-549 breast = system: BT-549 breast
UACC-62 melanoma = system: UACC-62 melanoma
NCI-H23 lung = system: NCI-H23 lung
M14 melanoma = system: M14 melanoma
MALME-3M melanoma = system: MALME-3M melanoma
U251 CNS = system: U251 CNS
NCI-H522 lung = system: NCI-H522 lung
OVCAR-4 ovarian = system: OVCAR-4 ovarian
COLO 205 colon = system: COLO 205 colon

SMILES: Clc1ccc2oc3c(NCCCN4CCOCC4)c4ccccc4nc3c2c1
- GI50 (K-562 leukemia): 1.56 µM
- TGI (K-562 leukemia): 10.2 µM
- GI50 (ACHN renal): 0.88 µM
- TGI (ACHN renal): 2.59 µM
- GI50 (MOLT-4 leukemia): 0.534 µM
- TGI (MOLT-4 leukemia): 12.7 µM
- GI50 (SF-295 CNS): 2.76 µM
- TGI (SF-295 CNS): 11.3 µM
- GI50 (HS 578T breast): 3.43 µM
- TGI (HS 578T breast): 22.6 µM
- GI50 (SR leukemia): 1.69 µM
- TGI (SR leukemia): 8.9 µM
- GI50 (RPMI-8226 leukemia): 2.12 µM
- TGI (RPMI-8226 leukemia): 5.05 µM
- GI50 (DU-145 prostate): 2.76 µM
- TGI (DU-145 prostate): 11.5 µM
- GI50 (RXF 393 renal): 1.41 µM
- TGI (RXF 393 renal): 2.8 µM
- GI50 (NCI-H460 lung): 1.18 µM
- TGI (NCI-H460 lung): 3.38 µM
- GI50 (CCRF-CEM leukemia): 0.117 µM
- TGI (CCRF-CEM leukemia): 5.48 µM
- GI50 (MDA-MB-231 breast): 2.27 µM
- TGI (MDA-MB-231 breast): 8.43 µM
- GI50 (NCI/ADR-RES ovarian): 1.01 µM
- TGI (NCI/ADR-RES ovarian): 5.55 µM
- GI50 (MDA-MB-435): 1.66 µM
- TGI (MDA-MB-435): 3.35 µM
- GI50 (HL-60(TB) leukemia): 0.295 µM
- TGI (HL-60(TB) leukemia): 1.21 µM
- GI50 (MCF7 breast): 1.17 µM
- TGI (MCF7 breast): 3.16 µM
- GI50 (PC-3 prostate): 1.78 µM
- TGI (PC-3 prostate): 3.99 µM
- GI50 (SNB-75 CNS): 1.77 µM
- TGI (SNB-75 CNS): 5.88 µM
- GI50 (SK-MEL-2 melanoma): 3 µM
- TGI (SK-MEL-2 melanoma): 8.79 µM
- GI50 (HOP-62 NSCLC): 1.72 µM
- TGI (HOP-62 NSCLC): 4.65 µM
- GI50 (KM12 colon): 2.49 µM
- TGI (KM12 colon): > 100 µM
- GI50 (EKVX NSCLC): 2.89 µM
- TGI (EKVX NSCLC): 10.1 µM
- GI50 (SK-MEL-5 melanoma): 4.15 µM
- TGI (SK-MEL-5 melanoma): 15.7 µM
- GI50 (T-47D breast): 3.06 µM
- TGI (T-47D breast): 18.9 µM
- GI50 (IGROV1 ovarian): 2.79 µM
- TGI (IGROV1 ovarian): 22.2 µM
- GI50 (UO-31 renal): 1.34 µM
- TGI (UO-31 renal): 3.68 µM
- GI50 (HOP-92 NSCLC): 1.32 µM
- TGI (HOP-92 NSCLC): 5.64 µM
- GI50 (SK-OV-3 ovarian): 3.23 µM
- TGI (SK-OV-3 ovarian): 17.1 µM
- GI50 (NCI-H226 lung): 2.2 µM
- TGI (NCI-H226 lung): 6.2 µM
- GI50 (OVCAR-3 ovarian): 3.29 µM
- TGI (OVCAR-3 ovarian): 34.7 µM
- GI50 (A498 renal): 4.06 µM
- TGI (A498 renal): 17 µM
- GI50 (OVCAR-8 ovarian): 1.82 µM
- TGI (OVCAR-8 ovarian): 5.1 µM
- GI50 (UACC-257 melanoma): 1.78 µM
- TGI (UACC-257 melanoma): 3.5 µM
- GI50 (TK-10 renal): 4.61 µM
- TGI (TK-10 renal): 20.7 µM
- GI50 (SN12C renal): 1.6 µM
- TGI (SN12C renal): 6.36 µM
- GI50 (HCT-15 colon): 1.53 µM
- TGI (HCT-15 colon): 5.33 µM
- GI50 (CAKI-1 renal): 1.4 µM
- TGI (CAKI-1 renal): 3.21 µM
- GI50 (LOX IMVI melanoma): 1.27 µM
- TGI (LOX IMVI melanoma): 2.77 µM
- GI50 (HCC-2998 colon): 1.36 µM
- TGI (HCC-2998 colon): 3.11 µM
- GI50 (SNB-19 CNS): 3.48 µM
- TGI (SNB-19 CNS): 20 µM
- GI50 (786-0 renal): 1.61 µM
- TGI (786-0 renal): 4.45 µM
- GI50 (SK-MEL-28 melanoma): 1.72 µM
- TGI (SK-MEL-28 melanoma): 3.16 µM
- GI50 (SF-268 CNS): 2.32 µM
- TGI (SF-268 CNS): > 100 µM
- GI50 (SF-539 CNS): 1.56 µM
- TGI (SF-539 CNS): 2.92 µM
- GI50 (OVCAR-5 ovarian): 1.83 µM
- TGI (OVCAR-5 ovarian): 5.28 µM
- GI50 (SW-620 colon): 0.839 µM
- TGI (SW-620 colon): 3.21 µM
- GI50 (BT-549 breast): 2.37 µM
- TGI (BT-549 breast): 5.51 µM
- GI50 (UACC-62 melanoma): 2.17 µM
- TGI (UACC-62 melanoma): 5.07 µM

SMILES: Clc1ccc2c(N/N=C/c3c[nH]c4ccccc34)ccnc2c1
- GI50 (NCI-H23 lung): 1.62 µM
- TGI (NCI-H23 lung): 3.17 µM
- GI50 (ACHN renal): 1.87 µM
- TGI (ACHN renal): 3.27 µM
- GI50 (MOLT-4 leukemia): 1.05 µM
- TGI (MOLT-4 leukemia): 3.83 µM
- GI50 (SF-295 CNS): 1.82 µM
- TGI (SF-295 CNS): 3.25 µM
- GI50 (DU-145 prostate): 1.53 µM
- TGI (DU-145 prostate): 2.93 µM
- GI50 (RXF 393 renal): 1.47 µM
- TGI (RXF 393 renal): 2.83 µM
- GI50 (M14 melanoma): 1.73 µM
- TGI (M14 melanoma): 3.18 µM
- GI50 (MDA-MB-231 breast): 1.65 µM
- TGI (MDA-MB-231 breast): 3.17 µM
- GI50 (NCI/ADR-RES ovarian): 1.93 µM
- TGI (NCI/ADR-RES ovarian): 4.45 µM
- GI50 (MDA-MB-435): 1.75 µM
- TGI (MDA-MB-435): 3.18 µM
- GI50 (PC-3 prostate): 1.55 µM
- TGI (PC-3 prostate): 2.95 µM
- GI50 (MALME-3M melanoma): 1.76 µM
- TGI (MALME-3M melanoma): 3.27 µM
- GI50 (SNB-75 CNS): 1.38 µM
- TGI (SNB-75 CNS): 2.72 µM
- GI50 (SK-MEL-2 melanoma): 1.83 µM
- TGI (SK-MEL-2 melanoma): 3.35 µM
- GI50 (HOP-62 NSCLC): 1.67 µM
- TGI (HOP-62 NSCLC): 3.25 µM
- GI50 (KM12 colon): 1.79 µM
- TGI (KM12 colon): 3.33 µM
- GI50 (SK-MEL-5 melanoma): 1.75 µM
- TGI (SK-MEL-5 melanoma): 3.14 µM
- GI50 (UO-31 renal): 1.32 µM
- TGI (UO-31 renal): 2.66 µM
- GI50 (HOP-92 NSCLC): 0.539 µM
- TGI (HOP-92 NSCLC): 2.02 µM
- GI50 (SK-OV-3 ovarian): 1.67 µM
- TGI (SK-OV-3 ovarian): 3.13 µM
- GI50 (NCI-H226 lung): 1.88 µM
- TGI (NCI-H226 lung): 4.54 µM
- GI50 (A498 renal): 1.51 µM
- TGI (A498 renal): 2.87 µM
- GI50 (U251 CNS): 0.837 µM
- TGI (U251 CNS): 2.11 µM
- GI50 (UACC-257 melanoma): 1.65 µM
- TGI (UACC-257 melanoma): 3.04 µM
- GI50 (TK-10 renal): 2.09 µM
- TGI (TK-10 renal): 3.57 µM
- GI50 (NCI-H522 lung): 1.77 µM
- TGI (NCI-H522 lung): 3.32 µM
- GI50 (OVCAR-4 ovarian): 1.83 µM
- TGI (OVCAR-4 ovarian): 3.63 µM
- GI50 (HCT-15 colon): 0.373 µM
- TGI (HCT-15 colon): 1.49 µM
- GI50 (CAKI-1 renal): 1.68 µM
- TGI (CAKI-1 renal): 3.1 µM
- GI50 (786-0 renal): 1.41 µM
- TGI (786-0 renal): 2.77 µM
- GI50 (SK-MEL-28 melanoma): 1.81 µM
- TGI (SK-MEL-28 melanoma): 3.23 µM
- GI50 (SF-539 CNS): 1.72 µM
- TGI (SF-539 CNS): 3.12 µM
- GI50 (OVCAR-5 ovarian): 1.63 µM
- TGI (OVCAR-5 ovarian): 3.04 µM
- GI50 (SW-620 colon): 0.793 µM
- TGI (SW-620 colon): 2.2 µM
- GI50 (BT-549 breast): 1.55 µM
- TGI (BT-549 breast): 2.91 µM
- GI50 (COLO 205 colon): 1.79 µM
- TGI (COLO 205 colon): 3.42 µM
